≈ marks a conversion by molar mass, not a printed value.
Test system: G(−) bacterial strains
Assay: Dilution antimicrobial susceptibility tests (MIC, NCCLS agar dilution / broth dilution)
Type: cell-based, Gram-negative organisms
Details: unit assumed
Experimental: The MIC (minimum inhibitory concentration) was determined by the NCCLS (National Committee for Clinical Laboratory Standards) methods 2000. Methods for dilution antimicrobial susceptibility testing for bacteria that growth aerobically (M7-A5, vol. 20, No. 2). The agar dilution method for determining antimicrobial susceptibility was carried out using Mueller-Hinton agar. A final inoculum of 10^4 CFU/spot was applied with an inoculation device. Broth dilution tests were performed with 5×10^5 CFU/well in 96 well plates. The susceptibilities of streptococci were determined by Mueller-Hinton agar supplemented with 5% sheep blood. All assays were run with the indicated control strains, available from the ATCC (American Type Culture Collection, Rockville, Md.).
Abbreviations used in Table 1 are defined as follows: Cf-R: Ceftazidime Resistance, Ci-R: Ciprofloxacin Resistance, Gen-R: Gentamycin Resistance, Imp-R: Imipenem Resistance, Mp-R: Meropenem Resistance, Ofx-R: Ofloxacin Resistance, B+: β-lactamase Production, AmpC: AmpC-lactamase Hyper production, CBPase: Carbapenemase Production.

[1] = strain #1 Acinetobacter calcoaceticus
[2] = strain #2 Acinetobacter baumannii, Cf-R, Ci-R
[3] = strain #3 Acinetobacter baumannii, Cf-R, Ci-R, Mp-I
[4] = strain #4 Acinetobacter baumannii, Cf-R, Imp-I, CBPase
[5] = strain #7 Enterobacter aerogenes
[6] = strain #8 Enterobacter cloacae, Cf-R, B+
[7] = strain #9 Enterobacter cloacae, Cf-R
[8] = strain #10 Escherichia coli, Ci-R
[9] = strain #11 Escherichia coli, Ci-R, AmpC
[10] = strain #15 Klebsiella pneumoniae
[11] = strain #16 Moraxella catarrhalis
[12] = strain #21 Providencia rettgeri
[13] = strain #22 Salmonella typhimurium
[14] = strain #25 Shigella dysenteriae
[15] = strain #28 Stenotrophomonas maltophilia
[16] = strain #29 Pseudomonas aeruginosa
[17] = strain #30 Pseudomonas aeruginosa
[18] = strain #31 Pseudomonas aeruginosa, Ofx-R
[19] = strain #32 Pseudomonas aeruginosa, Cf-R
[20] = strain #33 Pseudomonas aeruginosa, Ci-R
[21] = strain #34 Pseudomonas aeruginosa, Gen-R
[22] = strain #35 Pseudomonas aeruginosa, Ip-R
[23] = strain #36 Pseudomonas aeruginosa, Cf-R, Ci-R, Mp-R

| Structure (SMILES) | MIC [1] | MIC [2] | MIC [3] | MIC [4] | MIC (strain #5 Citrobacter diversus) | MIC (strain #6 Citrobacter freundii) | MIC [5] | MIC [6] | MIC [7] | MIC [8] | MIC [9] | MIC (strain #12 Escherichia coli) | MIC (strain #13 Escherichia coli) | MIC (strain #14 Klebsiella oxytoca) | MIC [10] | MIC [11] | MIC (strain #17 Morganella Morganii) | MIC (strain #18 Morganella Morganii) | MIC (strain #19 Proteus vulgaris) | MIC (strain #20 Proteus mirabilis) | also measured |
| --- | --- | --- | --- | --- | --- | --- | --- | --- | --- | --- | --- | --- | --- | --- | --- | --- | --- | --- | --- | --- | --- |
| C[C@@H](O)C1C(=O)N2C(C(=O)O)=C(CN3CC(C(N)=O)C3)[C@H](C)C12 (stereo partly drawn) [Compound 49] | 0.25 µg/mL (≈ 0.773 µM) | 0.5 µg/mL (≈ 1.55 µM) | 2 µg/mL (≈ 6.19 µM) | 1 µg/mL (≈ 3.09 µM) | 0.063 µg/mL (≈ 0.195 µM) | 0.13 µg/mL (≈ 0.402 µM) | 0.25 µg/mL (≈ 0.773 µM) | 0.063 µg/mL (≈ 0.195 µM) | 0.13 µg/mL (≈ 0.402 µM) | 0.063 µg/mL (≈ 0.195 µM) | 0.063 µg/mL (≈ 0.195 µM) | 0.063 µg/mL (≈ 0.195 µM) | 0.13 µg/mL (≈ 0.402 µM) | 0.25 µg/mL (≈ 0.773 µM) | 0.25 µg/mL (≈ 0.773 µM) | ≤ 0.008 µg/mL | 2 µg/mL (≈ 6.19 µM) | 1 µg/mL (≈ 3.09 µM) | 0.5 µg/mL (≈ 1.55 µM) | 0.13 µg/mL (≈ 0.402 µM) | MIC [12]: 0.5 µg/mL (≈ 1.55 µM); MIC [13]: 0.13 µg/mL (≈ 0.402 µM); MIC (strain #23 Serratia marcescens): 0.25 µg/mL (≈ 0.773 µM); MIC (strain #24 Serratia marcescens): 0.25 µg/mL (≈ 0.773 µM); MIC [14]: 0.13 µg/mL (≈ 0.402 µM); MIC (strain #26 Shigella sonnei): 0.13 µg/mL (≈ 0.402 µM); MIC (strain #27 Shigella flexneri): 0.063 µg/mL (≈ 0.195 µM); MIC [15]: 0.13 µg/mL (≈ 0.402 µM); MIC [16]: 4 µg/mL (≈ 12.4 µM); MIC [17]: 4 µg/mL (≈ 12.4 µM); MIC [18]: 2 µg/mL (≈ 6.19 µM); MIC [19]: 4 µg/mL (≈ 12.4 µM); MIC [20]: 4 µg/mL (≈ 12.4 µM); MIC [21]: 4 µg/mL (≈ 12.4 µM); MIC [22]: 8 µg/mL (≈ 24.7 µM); MIC [23]: 32 µg/mL (≈ 99 µM) |
| C[C@@H](O)C1C(=O)N2C(C(=O)O)=C(CN3CC[C@H](NC(=N)N)C3)[C@H](C)C12 (stereo partly drawn) [Compound 64] | 0.13 µg/mL (≈ 0.37 µM) | 1 µg/mL (≈ 2.85 µM) | 1 µg/mL (≈ 2.85 µM) | 0.5 µg/mL (≈ 1.42 µM) | 0.5 µg/mL (≈ 1.42 µM) | 0.5 µg/mL (≈ 1.42 µM) | 1 µg/mL (≈ 2.85 µM) | 0.5 µg/mL (≈ 1.42 µM) | 0.5 µg/mL (≈ 1.42 µM) | 0.25 µg/mL (≈ 0.711 µM) | 0.25 µg/mL (≈ 0.711 µM) | 0.5 µg/mL (≈ 1.42 µM) | 0.5 µg/mL (≈ 1.42 µM) | 1 µg/mL (≈ 2.85 µM) | 1 µg/mL (≈ 2.85 µM) | ≤ 0.008 µg/mL | 4 µg/mL (≈ 11.4 µM) | 2 µg/mL (≈ 5.69 µM) | 1 µg/mL (≈ 2.85 µM) | 0.5 µg/mL (≈ 1.42 µM) | MIC [12]: 2 µg/mL (≈ 5.69 µM); MIC [13]: 0.5 µg/mL (≈ 1.42 µM); MIC (strain #23 Serratia marcescens): 1 µg/mL (≈ 2.85 µM); MIC (strain #24 Serratia marcescens): 2 µg/mL (≈ 5.69 µM); MIC [14]: 0.5 µg/mL (≈ 1.42 µM); MIC (strain #26 Shigella sonnei): 0.5 µg/mL (≈ 1.42 µM); MIC (strain #27 Shigella flexneri): 0.25 µg/mL (≈ 0.711 µM); MIC [15]: 0.25 µg/mL (≈ 0.711 µM); MIC [16]: 1 µg/mL (≈ 2.85 µM); MIC [17]: 1 µg/mL (≈ 2.85 µM); MIC [18]: 0.25 µg/mL (≈ 0.711 µM); MIC [19]: 2 µg/mL (≈ 5.69 µM); MIC [20]: 2 µg/mL (≈ 5.69 µM); MIC [21]: 2 µg/mL (≈ 5.69 µM); MIC [22]: 2 µg/mL (≈ 5.69 µM); MIC [23]: 16 µg/mL (≈ 45.5 µM) |
| CC(O)C1C(=O)N2C(C(=O)O)=C(CN3CC(O)C(C(=N)N)C3)C(C)C12 (mixture of isomers) [Compound 185b] | 0.13 µg/mL | 0.5 µg/mL | 2 µg/mL | 1 µg/mL | 0.063 µg/mL | 0.063 µg/mL | 0.25 µg/mL | 0.063 µg/mL | 0.13 µg/mL | 0.031 µg/mL | 0.031 µg/mL | 0.031 µg/mL | 0.063 µg/mL | 0.13 µg/mL | 0.13 µg/mL | ≤ 0.008 µg/mL | 0.5 µg/mL | 0.5 µg/mL | 0.25 µg/mL | 0.063 µg/mL | MIC [12]: 0.25 µg/mL; MIC [13]: 0.063 µg/mL; MIC (strain #23 Serratia marcescens): 0.13 µg/mL; MIC (strain #24 Serratia marcescens): 0.13 µg/mL; MIC [14]: 0.063 µg/mL; MIC (strain #26 Shigella sonnei): 0.063 µg/mL; MIC (strain #27 Shigella flexneri): 0.063 µg/mL; MIC [15]: 0.13 µg/mL; MIC [16]: 1 µg/mL; MIC [17]: 1 µg/mL; MIC [18]: 0.5 µg/mL; MIC [19]: 1 µg/mL; MIC [20]: 1 µg/mL; MIC [21]: 1 µg/mL; MIC [22]: 4 µg/mL; MIC [23]: 8 µg/mL |
| CC(O)C1C(=O)N2C(C(=O)O)=C(CN3CCC(C(=N)N)C3)C(C)C12 (stereo not drawn) [Compound 185a] | 0.13 µg/mL (≈ 0.386 µM) | 0.5 µg/mL (≈ 1.49 µM) | 1 µg/mL (≈ 2.97 µM) | 1 µg/mL (≈ 2.97 µM) | 0.13 µg/mL (≈ 0.386 µM) | 0.13 µg/mL (≈ 0.386 µM) | 0.5 µg/mL (≈ 1.49 µM) | 0.063 µg/mL (≈ 0.187 µM) | 0.13 µg/mL (≈ 0.386 µM) | 0.063 µg/mL (≈ 0.187 µM) | 0.063 µg/mL (≈ 0.187 µM) | 0.063 µg/mL (≈ 0.187 µM) | 0.13 µg/mL (≈ 0.386 µM) | 0.25 µg/mL (≈ 0.743 µM) | 0.25 µg/mL (≈ 0.743 µM) | ≤ 0.008 µg/mL | 1 µg/mL (≈ 2.97 µM) | 1 µg/mL (≈ 2.97 µM) | 0.5 µg/mL (≈ 1.49 µM) | 0.13 µg/mL (≈ 0.386 µM) | MIC [12]: 0.5 µg/mL (≈ 1.49 µM); MIC [13]: 0.13 µg/mL (≈ 0.386 µM); MIC (strain #23 Serratia marcescens): 0.25 µg/mL (≈ 0.743 µM); MIC (strain #24 Serratia marcescens): 0.5 µg/mL (≈ 1.49 µM); MIC [14]: 0.13 µg/mL (≈ 0.386 µM); MIC (strain #26 Shigella sonnei): 0.13 µg/mL (≈ 0.386 µM); MIC (strain #27 Shigella flexneri): 0.063 µg/mL (≈ 0.187 µM); MIC [15]: 0.063 µg/mL (≈ 0.187 µM); MIC [16]: 1 µg/mL (≈ 2.97 µM); MIC [17]: 1 µg/mL (≈ 2.97 µM); MIC [18]: 0.5 µg/mL (≈ 1.49 µM); MIC [19]: 1 µg/mL (≈ 2.97 µM); MIC [20]: 1 µg/mL (≈ 2.97 µM); MIC [21]: 1 µg/mL (≈ 2.97 µM); MIC [22]: 2 µg/mL (≈ 5.95 µM); MIC [23]: 8 µg/mL (≈ 23.8 µM) |
| C[C@@H](O)C1C(=O)N2C(C(=O)O)=C(CN3CC[C@H](C(=O)N(C)C)C3)[C@H](C)C12 (stereo partly drawn) [Compound 120] | 4 µg/mL (≈ 10.9 µM) | 8 µg/mL (≈ 21.9 µM) | 16 µg/mL (≈ 43.8 µM) | 4 µg/mL (≈ 10.9 µM) | 0.5 µg/mL (≈ 1.37 µM) | 0.5 µg/mL (≈ 1.37 µM) | 2 µg/mL (≈ 5.47 µM) | 0.5 µg/mL (≈ 1.37 µM) | 1 µg/mL (≈ 2.74 µM) | 0.5 µg/mL (≈ 1.37 µM) | 0.5 µg/mL (≈ 1.37 µM) | 0.5 µg/mL (≈ 1.37 µM) | 0.5 µg/mL (≈ 1.37 µM) | 1 µg/mL (≈ 2.74 µM) | 1 µg/mL (≈ 2.74 µM) | 0.016 µg/mL (≈ 0.0438 µM) | 8 µg/mL (≈ 21.9 µM) | 4 µg/mL (≈ 10.9 µM) | 4 µg/mL (≈ 10.9 µM) | 0.5 µg/mL (≈ 1.37 µM) | MIC [12]: 2 µg/mL (≈ 5.47 µM); MIC [13]: 0.5 µg/mL (≈ 1.37 µM); MIC (strain #23 Serratia marcescens): 1 µg/mL (≈ 2.74 µM); MIC (strain #24 Serratia marcescens): 2 µg/mL (≈ 5.47 µM); MIC [14]: 0.5 µg/mL (≈ 1.37 µM); MIC (strain #26 Shigella sonnei): 0.5 µg/mL (≈ 1.37 µM); MIC (strain #27 Shigella flexneri): 0.5 µg/mL (≈ 1.37 µM); MIC [15]: 1 µg/mL (≈ 2.74 µM); MIC [16]: 16 µg/mL (≈ 43.8 µM); MIC [17]: 16 µg/mL (≈ 43.8 µM); MIC [18]: 4 µg/mL (≈ 10.9 µM); MIC [19]: 16 µg/mL (≈ 43.8 µM); MIC [20]: 16 µg/mL (≈ 43.8 µM); MIC [21]: 16 µg/mL (≈ 43.8 µM); MIC [22]: > 32 µg/mL; MIC [23]: > 32 µg/mL |
